Test results published in ChEMBL document CHEMBL1909046, “DrugMatrix in vitro pharmacology data”.

Assays:
[1] = molecular target: Mitogen-activated protein kinase 3 (Homo sapiens, UniProt P27361); test: DRUGMATRIX: Protein Serine/Threonine Kinase, ERK1 enzyme inhibition (substrate: Myelin Basic Protein); parameters: species or system Escherichia coli; conditions: Not Active = under 50% inhibition at 10 µM
Cathepsin G = molecular target: T1, Cathepsin G (Homo sapiens, UniProt P08311); test: biochemical; assay type: tissue-based, Neutrophil; conditions: neutrophil;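 note: inhibition of Cathepsin G enzyme activity, tested on an AMC-conjugated peptide substrate; in other assays of this panel Not Active means under 50% inhibition at 10 µM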
T1 sequence (P08311 whole entry): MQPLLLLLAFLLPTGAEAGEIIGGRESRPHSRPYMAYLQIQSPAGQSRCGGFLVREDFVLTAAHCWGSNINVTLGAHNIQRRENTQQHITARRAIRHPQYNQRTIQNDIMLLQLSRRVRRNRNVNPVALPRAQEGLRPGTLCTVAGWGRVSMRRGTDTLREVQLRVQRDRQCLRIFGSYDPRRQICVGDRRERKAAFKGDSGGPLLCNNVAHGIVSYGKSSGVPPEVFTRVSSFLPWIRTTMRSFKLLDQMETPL

Cannabinoid receptor 1 = Cannabinoid receptor 1 (Homo sapiens, UniProt P21554); assay type: cell membranes, Chem-1, Membrane; conditions: chem-1; note: in other assays of this panel Not Active means under 50% inhibition at 10 µM
[2] = molecular target: Voltage-gated inwardly rectifying potassium channel KCNH2 (Homo sapiens, UniProt Q12809); conditions: hek293; note: in other assays of this panel Not Active means under 50% inhibition at 10 µM
[3] = molecular target: T2, Alpha-1D adrenergic receptor (Homo sapiens, UniProt P25100); assay type: cell membranes, HEK293, Membrane; conditions: hek293; note: in other assays of this panel Not Active means under 50% inhibition at 10 µM
T2 sequence (P25100 whole entry): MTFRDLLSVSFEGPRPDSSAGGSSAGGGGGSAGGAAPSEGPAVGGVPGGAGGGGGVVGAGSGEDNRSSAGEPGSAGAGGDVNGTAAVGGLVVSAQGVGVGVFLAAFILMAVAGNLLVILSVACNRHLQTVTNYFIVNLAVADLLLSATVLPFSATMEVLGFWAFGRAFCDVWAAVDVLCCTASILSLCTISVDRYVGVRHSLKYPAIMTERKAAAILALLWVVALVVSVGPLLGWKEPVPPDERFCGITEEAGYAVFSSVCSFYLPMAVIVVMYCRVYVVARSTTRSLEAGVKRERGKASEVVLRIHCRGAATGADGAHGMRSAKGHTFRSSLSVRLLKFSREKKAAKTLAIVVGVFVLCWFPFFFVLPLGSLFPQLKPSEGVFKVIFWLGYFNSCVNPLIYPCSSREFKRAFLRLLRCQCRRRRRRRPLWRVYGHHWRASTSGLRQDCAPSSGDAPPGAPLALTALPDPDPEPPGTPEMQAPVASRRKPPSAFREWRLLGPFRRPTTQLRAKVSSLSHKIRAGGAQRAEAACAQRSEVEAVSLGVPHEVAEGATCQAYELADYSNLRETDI

Cytochrome P450 1A2 = molecular target: T3, Cytochrome P450 1A2 (Homo sapiens, UniProt P05177); conditions: bti-tn-5b1-4; note: in other assays of this panel Not Active means under 50% inhibition at 10 µM
T3 sequence (P05177 whole entry): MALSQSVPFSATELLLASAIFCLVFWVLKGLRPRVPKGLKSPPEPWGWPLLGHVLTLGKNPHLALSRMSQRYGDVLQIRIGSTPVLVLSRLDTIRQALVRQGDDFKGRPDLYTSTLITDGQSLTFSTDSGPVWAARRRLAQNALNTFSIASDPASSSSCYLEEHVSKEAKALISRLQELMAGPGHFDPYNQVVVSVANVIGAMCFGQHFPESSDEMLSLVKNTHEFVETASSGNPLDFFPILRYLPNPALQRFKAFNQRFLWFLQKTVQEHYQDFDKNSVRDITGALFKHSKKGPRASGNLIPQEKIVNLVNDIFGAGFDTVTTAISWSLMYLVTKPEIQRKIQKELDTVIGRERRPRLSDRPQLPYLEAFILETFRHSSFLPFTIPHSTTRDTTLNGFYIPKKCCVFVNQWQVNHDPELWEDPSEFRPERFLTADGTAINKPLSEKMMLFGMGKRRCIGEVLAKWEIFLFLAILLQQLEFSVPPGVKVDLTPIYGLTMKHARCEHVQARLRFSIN

[4] = molecular target: Tyrosine-protein kinase Fyn (Homo sapiens, UniProt P06241); test: biochemical; assay type: cell-based, Insect cells; conditions: insect cells
Tyrosine-protein kinase Fyn, sequence (P06241 whole entry): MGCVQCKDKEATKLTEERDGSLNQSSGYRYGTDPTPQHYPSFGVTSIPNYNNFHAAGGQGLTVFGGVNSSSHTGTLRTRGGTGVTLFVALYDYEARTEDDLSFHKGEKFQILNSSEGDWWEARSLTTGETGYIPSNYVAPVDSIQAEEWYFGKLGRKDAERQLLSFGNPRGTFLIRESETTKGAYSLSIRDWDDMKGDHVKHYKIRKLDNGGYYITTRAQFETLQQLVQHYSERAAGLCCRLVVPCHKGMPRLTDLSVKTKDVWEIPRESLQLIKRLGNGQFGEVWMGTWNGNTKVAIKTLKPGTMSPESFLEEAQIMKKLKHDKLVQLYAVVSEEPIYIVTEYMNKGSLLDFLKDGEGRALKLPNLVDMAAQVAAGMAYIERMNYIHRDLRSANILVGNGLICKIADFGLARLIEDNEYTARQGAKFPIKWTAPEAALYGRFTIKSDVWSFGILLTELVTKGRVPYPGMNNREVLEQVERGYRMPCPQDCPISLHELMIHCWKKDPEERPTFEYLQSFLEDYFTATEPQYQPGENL

Cannabinoid receptor 1, sequence (P21554 whole entry): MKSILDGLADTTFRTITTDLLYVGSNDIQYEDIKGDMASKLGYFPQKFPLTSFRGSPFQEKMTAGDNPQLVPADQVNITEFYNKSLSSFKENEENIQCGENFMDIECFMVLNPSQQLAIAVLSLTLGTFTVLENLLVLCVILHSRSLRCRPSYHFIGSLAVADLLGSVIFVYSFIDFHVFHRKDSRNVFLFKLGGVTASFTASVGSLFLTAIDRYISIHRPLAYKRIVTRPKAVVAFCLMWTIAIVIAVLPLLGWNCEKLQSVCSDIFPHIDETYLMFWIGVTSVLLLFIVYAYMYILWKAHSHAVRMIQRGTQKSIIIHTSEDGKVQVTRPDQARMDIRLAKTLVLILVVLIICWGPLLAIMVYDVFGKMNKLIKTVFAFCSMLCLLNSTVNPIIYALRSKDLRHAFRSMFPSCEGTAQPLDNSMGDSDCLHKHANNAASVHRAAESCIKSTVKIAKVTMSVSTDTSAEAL
Voltage-gated inwardly rectifying potassium channel KCNH2, sequence (Q12809 whole entry): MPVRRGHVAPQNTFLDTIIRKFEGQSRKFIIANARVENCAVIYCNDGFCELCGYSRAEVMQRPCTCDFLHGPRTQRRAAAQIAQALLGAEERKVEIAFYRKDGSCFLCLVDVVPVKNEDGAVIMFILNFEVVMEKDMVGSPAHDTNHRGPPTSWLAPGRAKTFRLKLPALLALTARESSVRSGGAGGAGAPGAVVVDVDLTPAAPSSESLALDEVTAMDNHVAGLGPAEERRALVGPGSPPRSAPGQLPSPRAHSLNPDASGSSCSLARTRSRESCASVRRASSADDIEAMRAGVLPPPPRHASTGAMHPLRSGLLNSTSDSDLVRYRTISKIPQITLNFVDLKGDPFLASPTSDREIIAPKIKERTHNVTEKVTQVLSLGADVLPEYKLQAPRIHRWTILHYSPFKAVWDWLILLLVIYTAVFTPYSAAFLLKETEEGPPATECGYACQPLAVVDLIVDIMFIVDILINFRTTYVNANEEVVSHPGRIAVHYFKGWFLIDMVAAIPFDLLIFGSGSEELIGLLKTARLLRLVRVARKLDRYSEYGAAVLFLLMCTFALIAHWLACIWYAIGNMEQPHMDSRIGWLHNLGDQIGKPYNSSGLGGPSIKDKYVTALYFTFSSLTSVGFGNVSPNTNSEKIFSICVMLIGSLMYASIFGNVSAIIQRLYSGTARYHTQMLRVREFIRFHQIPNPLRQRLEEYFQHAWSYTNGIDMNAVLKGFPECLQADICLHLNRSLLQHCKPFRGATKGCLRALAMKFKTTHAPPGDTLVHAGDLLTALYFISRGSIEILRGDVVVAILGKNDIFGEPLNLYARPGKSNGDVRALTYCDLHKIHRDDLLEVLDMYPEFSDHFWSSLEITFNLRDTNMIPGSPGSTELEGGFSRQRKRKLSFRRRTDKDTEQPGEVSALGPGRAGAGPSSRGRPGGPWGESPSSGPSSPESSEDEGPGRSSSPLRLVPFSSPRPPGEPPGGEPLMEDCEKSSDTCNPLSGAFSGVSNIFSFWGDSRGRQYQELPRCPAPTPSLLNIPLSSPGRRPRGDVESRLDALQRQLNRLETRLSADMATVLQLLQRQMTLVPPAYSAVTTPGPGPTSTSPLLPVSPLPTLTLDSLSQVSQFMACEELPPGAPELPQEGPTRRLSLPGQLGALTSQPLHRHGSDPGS
Mitogen-activated protein kinase 3, sequence (P27361 whole entry): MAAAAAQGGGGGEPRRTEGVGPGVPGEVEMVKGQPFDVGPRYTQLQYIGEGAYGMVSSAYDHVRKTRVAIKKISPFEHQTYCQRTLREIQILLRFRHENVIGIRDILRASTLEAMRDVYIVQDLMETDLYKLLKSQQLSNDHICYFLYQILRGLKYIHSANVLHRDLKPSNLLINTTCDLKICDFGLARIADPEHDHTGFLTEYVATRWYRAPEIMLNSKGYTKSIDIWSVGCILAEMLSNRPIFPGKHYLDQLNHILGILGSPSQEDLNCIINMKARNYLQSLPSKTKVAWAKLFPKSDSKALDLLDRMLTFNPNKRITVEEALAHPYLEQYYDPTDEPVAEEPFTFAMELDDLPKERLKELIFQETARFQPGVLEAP

C[N+](C)(C)CCOP(=O)([O-])OC[C@H](O)CO
Not Active: IC50 [1] | IC50 (Cathepsin G) | IC50 (Cannabinoid receptor 1) | IC50 [2] | Ki [2] | IC50 [3] | IC50 (Cytochrome P450 1A2) | Ki (Cytochrome P450 1A2) | IC50 [4]

NC(=O)CN1CCCC1=O
Not Active: IC50 [1] | IC50 (Cathepsin G) | IC50 (Cannabinoid receptor 1) | IC50 [2] | Ki [2] | IC50 [3] | IC50 (Cytochrome P450 1A2) | Ki (Cytochrome P450 1A2) | IC50 [4]

OC[C@H]1OC2C3[C@@H](CO)OC(O[C@H]4[C@H](O)[C@@H](O)[C@@H](O[C@H]5[C@H](O)[C@@H](O)[C@@H](O[C@H]6[C@H](O)[C@@H](O)[C@@H](O[C@H]7[C@H](O)[C@@H](O)[C@@H](O[C@H]8[C@H](O)[C@@H](O)[C@@H](O[C@H]9[C@H](O)[C@@H](O)C(OC1[C@H](O)[C@H]2O)O[C@@H]9CO)O[C@@H]8CO)O[C@@H]7CO)O[C@@H]6CO)O[C@@H]5CO)O[C@@H]4CO)[C@H](O)[C@H]3O
Not Active: IC50 [1] | IC50 (Cathepsin G) | IC50 (Cannabinoid receptor 1) | IC50 [2] | Ki [2] | IC50 [3] | IC50 (Cytochrome P450 1A2) | Ki (Cytochrome P450 1A2) | IC50 [4]

CN(CCOc1ccc(C[C@H](Nc2ccccc2C(=O)c2ccccc2)C(=O)O)cc1)c1ccccn1
Not Active: IC50 [1] | IC50 (Cathepsin G) | IC50 (Cannabinoid receptor 1) | IC50 [2] | Ki [2] | IC50 [3] | IC50 (Cytochrome P450 1A2) | Ki (Cytochrome P450 1A2) | IC50 [4]

Nc1ccc(Cc2ccc(N)cc2)cc1
Not Active: IC50 [1] | IC50 (Cathepsin G) | IC50 (Cannabinoid receptor 1) | IC50 [2] | Ki [2] | IC50 [3] | IC50 (Cytochrome P450 1A2) | Ki (Cytochrome P450 1A2) | IC50 [4]

C=C(Cl)Cl [1,1-DICHLOROETHENE]
Not Active: IC50 [1] | IC50 (Cathepsin G) | IC50 (Cannabinoid receptor 1) | IC50 [2] | Ki [2] | IC50 [3] | IC50 (Cytochrome P450 1A2) | Ki (Cytochrome P450 1A2) | IC50 [4]

O=C(Nc1ccc(Cl)c(Cl)c1)c1cc(Cl)cc(Cl)c1O [3,3',4',5-TETRACHLOROSALICYLANILIDE]
Not Active: IC50 [1] | IC50 (Cathepsin G) | IC50 (Cannabinoid receptor 1) | IC50 [2] | Ki [2] | IC50 [3] | IC50 (Cytochrome P450 1A2) | Ki (Cytochrome P450 1A2) | IC50 [4]

O=C(O)COC(=O)Cc1ccccc1Nc1c(Cl)cccc1Cl [ACECLOFENAC]
Not Active: IC50 [1] | IC50 (Cathepsin G) | IC50 (Cannabinoid receptor 1) | IC50 [2] | Ki [2] | IC50 [3] | IC50 (Cytochrome P450 1A2) | Ki (Cytochrome P450 1A2) | IC50 [4]

CCO [ALCOHOL]
Not Active: IC50 [1] | IC50 (Cathepsin G) | IC50 (Cannabinoid receptor 1) | IC50 [2] | Ki [2] | IC50 [3] | IC50 (Cytochrome P450 1A2) | Ki (Cytochrome P450 1A2) | IC50 [4]

OC[C@H]1O[C@@H]2O[C@H]3[C@H](O)[C@@H](O)[C@@H](O[C@H]4[C@H](O)[C@@H](O)[C@@H](O[C@H]5[C@H](O)[C@@H](O)[C@@H](O[C@H]6[C@H](O)[C@@H](O)[C@@H](O[C@H]7[C@H](O)[C@@H](O)[C@@H](O[C@H]1[C@H](O)[C@H]2O)O[C@@H]7CO)O[C@@H]6CO)O[C@@H]5CO)O[C@@H]4CO)O[C@@H]3CO [ALFADEX]
Not Active: IC50 [1] | IC50 (Cathepsin G) | IC50 (Cannabinoid receptor 1) | IC50 [2] | Ki [2] | IC50 [3] | IC50 (Cytochrome P450 1A2) | Ki (Cytochrome P450 1A2) | IC50 [4]

Oc1ncnc2[nH]ncc12 [ALLOPURINOL]
Not Active: IC50 [1] | IC50 (Cathepsin G) | IC50 (Cannabinoid receptor 1) | IC50 [2] | Ki [2] | IC50 [3] | IC50 (Cytochrome P450 1A2) | Ki (Cytochrome P450 1A2) | IC50 [4]

C=CCO [ALLYL ALCOHOL]
Not Active: IC50 [1] | IC50 (Cathepsin G) | IC50 (Cannabinoid receptor 1) | IC50 [2] | Ki [2] | IC50 [3] | IC50 (Cytochrome P450 1A2) | Ki (Cytochrome P450 1A2) | IC50 [4]

Nc1nc(N)c2nc(CNc3ccc(C(=O)N[C@@H](CCC(=O)O)C(=O)O)cc3)cnc2n1 [AMINOPTERIN]
Not Active: IC50 [1] | IC50 (Cathepsin G) | IC50 (Cannabinoid receptor 1) | IC50 [2] | Ki [2] | IC50 [3] | IC50 (Cytochrome P450 1A2) | Ki (Cytochrome P450 1A2) | IC50 [4]

Nc1ccc(C(=O)O)c(O)c1 [AMINOSALICYLIC ACID]
Not Active: IC50 [1] | IC50 (Cathepsin G) | IC50 (Cannabinoid receptor 1) | IC50 [2] | Ki [2] | IC50 [3] | IC50 (Cytochrome P450 1A2) | Ki (Cytochrome P450 1A2) | IC50 [4]

CC(C)(C#N)c1cc(Cn2cncn2)cc(C(C)(C)C#N)c1 [ANASTROZOLE]
Not Active: IC50 [1] | IC50 (Cathepsin G) | IC50 (Cannabinoid receptor 1) | IC50 [2] | Ki [2] | IC50 [3] | IC50 (Cytochrome P450 1A2) | Ki (Cytochrome P450 1A2) | IC50 [4]

C[C@]12CC[C@@H](O)C[C@@H]1CC[C@@H]1[C@@H]2CC[C@]2(C)C(=O)CC[C@@H]12 [ANDROSTERONE]
Not Active: IC50 [1] | IC50 (Cathepsin G) | IC50 (Cannabinoid receptor 1) | IC50 [2] | Ki [2] | IC50 [3] | IC50 (Cytochrome P450 1A2) | Ki (Cytochrome P450 1A2) | IC50 [4]
